{"source": "patent US20120021014A1", "about": "“CORROSION CURRENT-GENERATING METAL PARTICULATES AND USE THEREOF” (priority 2010, published 2012)", "key": {"human keratinocyte cells": {"tested_on": "human keratinocyte cells", "experiment": "Hydrogen peroxide production in human keratinocytes (CM-H2DCFDA fluorescence)", "assay_type": "cell-based", "conditions": "0.03% positive control; 60 Minutes", "description": "The cells were treated with different amounts of the magnesium powder."}, "Albino male CD-1 mice": {"tested_on": "Albino male CD-1 mice", "experiment": "Oxazolone immune cell-mediated skin inflammation model (ear biopsy weight)", "assay_type": "in vivo", "conditions": "1 mg/ml positive control, topical to ear; 24 hours"}, "[1]": {"tested_on": "male albino Wistar rats (SPRAGUE DAWLEY)", "experiment": "CFA-induced ankle arthritis, joint swelling (paw volume difference)", "assay_type": "in vivo", "conditions": "positive control, 3 mg/kg once daily; CFA-induced paw vs control paw"}, "[2]": {"tested_on": "male albino Wistar rats (SPRAGUE DAWLEY)", "experiment": "CFA-induced ankle arthritis, incapacitance test (weight bearing)", "assay_type": "in vivo", "conditions": "positive control, 3 mg/kg once daily prior to the functional measurements"}}}
{"smiles": "OO", "note": "[H2O2, hydrogen peroxide]", "values": [{"measurement": "Hydrogen peroxide production (fluorescence 485 nm excitation/530 nm emission)", "setting": "human keratinocyte cells", "value": "150.11 ± 2.9"}]}
{"smiles": "C[C@]12CCC(=O)C=C1CC[C@@H]1[C@@H]2[C@@H](O)C[C@@]2(C)[C@H]1CC[C@]2(O)C(=O)CO", "note": "[Hydrocortisone, hydrocortisone]", "values": [{"measurement": "Percent Inhibition of Skin Inflammation", "setting": "Albino male CD-1 mice", "value": "70.3% ± 6.6%"}]}
{"smiles": "CN1CC[C@]23c4c5ccc(O)c4O[C@H]2[C@@H](O)C=C[C@H]3[C@H]1C5.O=S(=O)(O)O", "note": "[Morphine, morphine sulphate]", "values": [{"measurement": "MEAN PAW VOLUME DIFFERENCE", "setting": "[1]", "value": 1.38, "unit": "mL"}, {"measurement": "Deficiency Improvement, MEAN IMPROVEMENT (weight bearing percent minus Day 4 baseline, averaged over all time points)", "setting": "[2]", "value": 16.85}]}
